# Results taken from patent publication US20200129525A1, “Method to improve quality of life in non-primate animals by administration of Dehydroepiandrosterone Sulfate (DHEAS) sufficient to achieve primate-specific levels of circulating DHEAS that are not natural to the target species” (priority 2018, published 2020).
# Several values for one entry are separate records, joined by “and”; a condition that tells them apart may be missing. Equal values may be shown once.
# System: dogs
# Assay: Study on 60 dogs: owner estimation of playfulness and sociability before and after DHEAS treatment
# Assay type: in vivo, dog
# Conditions: for playfulness and sociability: dogs
# Protocol: Table 1. […] Playfulness was defined as a dog initiating solitary play. Sociability was defined as a dog initiating play with another pet or with its owner. […] Of twenty-six dogs treated the highest doses (25 or 50 mg/kg) eighteen owners reported the changes in their dogs to be dramatic.
# Physiological levels of circulating DHEAS in canines are 10 ng/ml (±2 ng/ml) (Frank et al, 2003; Odell & Parker, 1985; Tremblay & Belanger, 1985; Mialot et al, 1988; Mongillo et al, 2014; Rondelli et al, 2015). Our invention employs doses of DHEAS that produce supra-physiologic concentrations of circulating DHEAS at least nine times higher than this, i.e., at least 90 ng/ml, i.e. equivalent to the lower range of primate-specific high levels of circulating DHEAS (FIG. 1). This equates to a minimum treatment dose of 0.009 mg/kg. Our studies reported here were performed with DHEAS administered at ranges from 0.5-50 mg/kg. For all non-primate animals, this invention employs supra-physiologic doses of DHEAS that produce concentrations of circulating DHEAS that are at least ten-fold higher than those found naturally
# Thus, in 56 of 60 treated dogs, owners reported observing a very clear improvement in their dog's playfulness and sociability, an observation that in most cases was also remarked upon by visitors to the owner's home. The uniformity of this finding is surprising, because the natural levels of canine DHEAS are quite low, and so this species has never been exposed to such high levels as we report here. Clearly, dogs experience an unmistakable positive response to exogenous DHEAS.
# We administered our DHEAS orally, as a liquid, or in capsules. A preferred embodiment of this invention are dosage formulations that mask the bitter flavor of DHEAS from dogs or other pet animals receiving it orally. As an example, Onda et al. (U.S. Pat. No. 4,385,078A) teach methods for providing enteric coatings for solid dosage forms. Tai (U.S. Pat. No. 5,013,557A) teaches taste masking compositions comprising spray dried microcapsules containing sucralfate, and Alkire (U.S. Pat. No. 5,607,697A) and Cherukuri et al (U.S. Pat. No. 5,013,716A) teach the manufacture of taste masking microparticles for oral dosage forms. Patell (U.S. Pat. No. 4,916,161A) teaches the use of taste-masking pharmaceutical agents via wet granulation. In short, many methods are available to produce a formulation that will effectively prevent dogs or other pet animals from experiencing the bitter taste of DHEAS. Very little work has been done using DHEAS as the pharmaceutical ingredient, with most studies utilizing DHEA. For example, US20140235598A1 teaches the manufacture of tablets containing DHEA, but a similar formulation could be rendered with DHEAS.
substance,measurement,setting,value
Dehydroepiandrosterone sulfate [DHEAS],dogs whose owners reported a clear increase in playfulness and/or sociability during the treatment period,"60 treated dogs, DHEAS oral (liquid or capsules), 0.5-50 mg/kg, owner estimation",fifty-six of sixty and 56 of 60
same,playfulness and sociability,doses of 5 mg/kg and above,profound increase
same,playfulness and sociability,lower dose of 1 mg/kg,an effect could be observed
same,owners who reported the changes in their dogs to be dramatic,of twenty-six dogs treated with the highest doses (25 or 50 mg/kg),eighteen
